# Data published in patent US20220056019A1, “FARNESOID X RECEPTOR AGONISTS AND USES THEREOF” (Metacrine, Inc., priority 2018, published 2022).
# Target: T1, hFXR (Homo sapiens, UniProt Q96RI1)
# T1 construct: expressed in transfected cells; host or cells: CV-1 cells
# T1 sequence (Q96RI1 1-486): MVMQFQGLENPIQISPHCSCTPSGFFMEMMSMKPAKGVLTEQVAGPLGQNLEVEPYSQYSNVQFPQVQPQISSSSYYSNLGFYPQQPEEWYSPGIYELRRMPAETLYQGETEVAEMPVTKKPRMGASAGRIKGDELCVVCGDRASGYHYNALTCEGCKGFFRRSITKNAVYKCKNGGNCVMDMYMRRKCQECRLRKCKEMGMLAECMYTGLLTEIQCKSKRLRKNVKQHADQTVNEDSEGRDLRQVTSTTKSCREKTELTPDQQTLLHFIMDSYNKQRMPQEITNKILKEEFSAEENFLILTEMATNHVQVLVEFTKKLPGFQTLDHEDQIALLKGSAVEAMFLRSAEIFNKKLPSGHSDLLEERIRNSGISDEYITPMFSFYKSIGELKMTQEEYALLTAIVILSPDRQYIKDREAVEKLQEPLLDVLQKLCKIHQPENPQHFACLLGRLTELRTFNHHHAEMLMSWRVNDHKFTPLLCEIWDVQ
# T1 sequence (P19793 1-462 partner): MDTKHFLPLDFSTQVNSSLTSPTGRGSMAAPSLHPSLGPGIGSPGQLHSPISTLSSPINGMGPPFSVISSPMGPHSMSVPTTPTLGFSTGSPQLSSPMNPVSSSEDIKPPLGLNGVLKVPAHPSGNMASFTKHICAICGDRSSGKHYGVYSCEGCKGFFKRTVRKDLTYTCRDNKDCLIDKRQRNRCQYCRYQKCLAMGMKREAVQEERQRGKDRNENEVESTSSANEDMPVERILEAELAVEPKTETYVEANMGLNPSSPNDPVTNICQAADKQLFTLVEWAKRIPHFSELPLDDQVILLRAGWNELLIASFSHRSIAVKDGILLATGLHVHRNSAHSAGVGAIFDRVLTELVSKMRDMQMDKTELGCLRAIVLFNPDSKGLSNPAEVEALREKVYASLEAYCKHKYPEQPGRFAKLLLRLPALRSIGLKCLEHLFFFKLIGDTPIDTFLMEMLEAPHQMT
# Experiment: In Vitro FXR Assay (TK): TK-ECRE-luc reporter in transfected CV-1 cells
# Type: cell-based
# Details: 18 hrs incubation, luminescence
# How it was run: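 CV-1 cells transiently cotransfected with hFXR, hRXR, TK-ECRE-luc reporter and pCMX-YFP plasmids in charcoal-stripped serum medium. Serially diluted compounds added for 18 h at 37° C., then cells lysed and luciferase luminescence measured.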
row,SMILES,EC50
1,"COCC(=O)N[C@H]1CC[C@H](C(=O)N(CC23CCC(c4ccc(OC)c(C)c4)(CC2)CC3)c2cc(-c3cnc(C4CC4)s3)ccn2)CC1 [Compound 9.07, (trans)-N-(4-(2-Cyclopropylthiazol-5-yl)pyridin-2-yl)-N-((4-(4-methoxy-3-methylphenyl)bicyclo[2.2.2]octan-1-yl)methyl)-4-(2-methoxyacetamido)cyclohexanecar-boxamide]",≤ 50 nM
2,"COc1ccc(C23CCC(CN(c4cc(-c5cnc(C6CC6)s5)ccn4)C(=O)[C@H]4CC[C@H](NC(=O)CO)CC4)(CC2)CC3)cc1C [Compound 9.08, (trans)-N-(4-(2-Cyclopropylthiazol-5-yl)pyridin-2-yl)-4-(2-hydroxyacetamido)-N-((4-(4-methoxy-3-methylphenyl)bicyclo[2.2.]octan-1-yl)methyl)cyclohexanecarboxamide]",≤ 50 nM
3,"COc1ccc(C23CCC(CN(c4cc(-c5coc(C6CC6)n5)ccn4)C(=O)[C@H]4CC[C@H](NC(C)=O)CC4)(CC2)CC3)cc1C [Compound 9.09, (trans)-4-Acetamido-N-(4-(2-cyclopropyloxazol-4-yl)pyridin-2-yl)-N-((4-(4-methoxy-3-methylphenyl)bicyclo[2.2.2]octan-1-yl)methyl)cyclohexanecarboxamide]",≤ 50 nM
4,"COCC(=O)N[C@H]1CC[C@H](C(=O)N(CC23CCC(c4ccc(OC)c(C)c4)(CC2)CC3)c2cc(-c3coc(C4CC4)n3)ccn2)CC1 [Compound 9.10, (trans)-N-(4-(2-Cyclopropyloxazol-4-yl)pyridin-2-yl)-N-((4-(4-methoxy-3-methylphenyl)bicyclo[2.2.2]octan-1-yl)methyl)-4-(2-methoxyacetamido)cyclohexanecar-boxamide]",≤ 50 nM
5,"COc1ccc(C23CCC(CN(c4cc(-c5coc(C6CC6)n5)ccn4)C(=O)[C@H]4CC[C@H](NC(=O)CO)CC4)(CC2)CC3)cc1C [Compound 9.11, (trans)-N-(4-(2-Cyclopropyloxazol-4-yl)pyridin-2-yl)-4-(2-hydroxyacetamido)-N-((4-(4-methoxy-3-methylphenyl)bicyclo[2.2.2]octan-1-yl)methyl)cyclohexanecarboxamide]",≤ 50 nM
6,"CCC(=O)N[C@H]1CC[C@H](C(=O)N(C[C@H]2CC[C@H](c3ccc(OC)c(C)c3)CC2)c2cccc(-c3cnn(C(C)C)c3)c2)CC1 [Compound 10, trans-N-(3-(1-Isopropyl-1H-pyrazol-4-yl)phenyl)-N-((trans-4-(4-methoxy-3-methylphenyl)cyclohexyl)methyl)-4-propionamidocyclohexanecarboxamide]",≤ 50 nM

# Next, values leading:
row,EC50,SMILES
1,50 to 1000 nM,"COc1ccc([C@H]2CC[C@H](CN(c3cccc(-c4cnn(C(C)C)c4)c3)C(=O)[C@H]3CC[C@H](NC(=O)C4CCCCC4)CC3)CC2)cc1C [Compound 10.01, trans-4-(Cyclohexanecarboxamido)-N-(3-(1-isopropyl-1H-pyrazol-4-yl)phenyl)-N-((trans-4-(4-methoxy-3-methylphenyl)cyclohexyl)methyl) cyclohexanecarboxamide]"
2,≤ 50 nM,"COc1ccc([C@H]2CC[C@H](CN(c3cccc(-c4cnn(C(C)C)c4)c3)C(=O)[C@H]3CC[C@H](NC(=O)C4CCOCC4)CC3)CC2)cc1C [Compound 10.02, N-(trans-4-((3-(1-Isopropyl-1H-pyrazol-4-yl)phenyl)((trans-4-(4-methoxy-3-methylphenyl)cyclohexyl)methyl)carbamoyl)cyclohexyl)tetrahydro-2H-pyran-4-carboxamide]"
3,50 to 1000 nM,"COc1ccc([C@H]2CC[C@H](CN(c3cccc(-c4cnn(C(C)C)c4)c3)C(=O)[C@H]3CC[C@H](NC(=O)CC4CCOCC4)CC3)CC2)cc1C [Compound 10.03, trans-N-(3-(1-Isopropyl-1H-pyrazol-4-yl)phenyl)-N-((trans-4-(4-methoxy-3-methylphenyl)cyclohexyl)methyl)-4-(2-(tetrahydro-2H-pyran-4-yl)acetamido)cyclohexanecarboxa-mide]"
